The results in this text go back to patent publication US10744128B2, “6-(5-membered heteroaryl)isoquinolin-3-yl-(5-membered heteroaryl) carboxamides and preparation and use thereof” (Samumed, LLC, priority 2017, dated 2020).

pEC50: −log10 of the molar value.

The test system of assay [1] is Wnt-responsive promoter (Sp5-Luc reporter) in SW480 colon carcinoma cells. Description: Sp5-Luc reporter gene screening assay for Wnt activity in SW480 cells. In kind it is cell-based, human. The conditions noted are these: Homo sapiens, 36 to 48 hours, luminescence. An excerpt: The screening assay for Wnt activity is described as follows. Reporter cell lines can be generated by stably transducing cancer cell lines (e.g., colon cancer) or primary cells (e.g., IEC-6 intestinal cells) with a lentiviral construct that includes a Wnt-responsive promoter driving expression of the firefly luciferase gene.
SW480 colon carcinoma cells were transduced with a lentiviral vector expressing luciferase with a human Sp5 promoter consisting of a sequence of eight TCF/LEF binding sites. SW480 cells stably expressing the Sp5-Luc reporter gene and a hygromycin resistance gene were selected by treatment with 150 μg/mL of hygromycin for 7 days. These stably transduced SW480 cells were expanded in cell culture and used for all further screening activities. […] For Sp5-Luc reporter gene assays, the cells were plated at 4,000 cells/well in 384-well plates with a DMEM medium containing 1% fetal bovine serum, and 1% Penicillin-Streptomycin and incubated for 36 to 48 hours at 37° C. and 5% CO2. Following incubation, 15 μl of BriteLite Plus luminescence reagent (Perkin Elmer) was added to each well of the 384-well assay plates. The plates were placed on an orbital shaker for 2 min and then luminescence was quantified using the Envision (Perkin Elmer) plate reader. Readings were normalized to DMSO only treated cells, and normalized activities were utilized for EC50 calculations using the dose-response log (inhibitor) vs. response −variable slope (four parameters) nonlinear regression feature available in GraphPad Prism 5.0 (or Dotmatics).

In a further assay the target is recombinant GSK3β kinase (Homo sapiens (Human), UniProt P49841). Description: GSK3β kinase assay (Ser/Thr 09 peptide Z-lyte, FRET). In kind it is biochemical. The conditions noted are these: GSK3β kinase, 46 μM ATP, one hour; method calls values IC50.
The test system of assay [2] is SW480 colon carcinoma cells. The assay is described as follows: Cell viability assay (CellTiter-Glo) in SW480 cells. In kind it is cell-based, human. Particulars: Homo sapiens, 96 h, four days. The procedure: SW480 colon carcinoma cells were transduced with a lentiviral vector expressing luciferase with a human Sp5 promoter consisting of a sequence of eight TCF/LEF binding sites. SW480 cells stably expressing the Sp5-Luc reporter gene and a hygromycin resistance gene were selected by treatment with 150 µg/mL of hygromycin for 7 days. These stably transduced SW480 cells were expanded in cell culture and used for all further screening activities.
For the Cell Viability Assays, the cells were plated at 2,000 cells/well in 384-well plates with a DMEM medium containing 1% fetal bovine serum, and 1% Penicillin-Streptomycin and incubated for […] at 37° C. and 5% CO2. Eight replicates of DMSO-treated cells served as controls and cells treated with compound were performed in duplicate.
After incubation, 10 μL of CellTiter-Glo (Promega) was added to each well allowed to incubate for approximately 12 minutes. This reagent “results in cell lysis and generation of a luminescent signal proportional to the amount of ATP present. The amount of ATP is directly proportional to the number of cells present in culture, in agreement with previous reports. The CellTiter-Glo® Assay generates a “glow-type” luminescent signal, produced by the luciferase reaction (Promega.com)”.

Assay [3] deals with primary human fibroblasts derived from IPF patients (LL29 cells), α-smooth muscle actin. Description: Inhibition of fibrotic process: αSMA in TGF-β1 treated LL29 fibroblasts. The conditions noted are these: Homo sapiens, Fibroblast; for pEC50: 96 h, LL29 cells, TGF-β1 20 ng/mL, 4 days, % cells positive for αSMA. In kind it is cell-based. The procedure:
Representative compounds were screened using primary human fibroblasts (derived from IPF patients) treated with TGF-β1 to determine their ability to inhibit the fibrotic process.
LL29 cells were plated at 1,500 cells/well in 70 μL/well F12 medium supplemented with 1% Fetal Bovine Serum. […] Wells treated with TGF-β1 and containing DMSO were used as positive control, and cells with only DMSO were negative control. […] Following incubation for 4 days, SYTOX green nucleic acid stain (Life Technologies [Thermo Fisher Scientific]) was added to the wells at a final concentration of 1 μM and incubated at room temperature for 30 min.

In the next assay the test system is IL-6. Description: IL-6 inhibition in LPS-stimulated human peripheral blood mononuclear cells (HTRF). In kind it is cell-based. The conditions noted are these: Homo sapiens, PBMC; for pEC50: huPBMCs, LPS 50 ng/mL, 22 hours, IL-6 HTRF; for inhibition at 10 µM: read-out: percent inhibition at 10 μM. The procedure:
Fresh Normal PB MNC (Catalog # PB001, AllCells, Alameda, Calif.) were shipped overnight at 4° C. and resuspended in Roswell Park Memorial Institute (RPMI) 1640 Medium, with GlutaMAX Supplement (Catalog #61870127, ThermoFisher Scientific, Waltham, Mass.) supplemented with 1% Penicillin-Streptomycin (Catalog #15140163, ThermoFisher Scientific, Waltham, Mass.) and 1% fetal bovine serum (FBS) (Catalog #16140089, ThermoFisher Scientific, Waltham, Mass.) assay media.
Fresh normal human peripheral blood mononuclear cells (huPBMCs) were resuspended in 1% FBS-RPMI assay media with 1% Penicillin-Streptomycin 1% to a cell concentration of 1×10e6 cells/mL. […] 50 ng/mL of Lipopolysaccharides from Escherichia coli 0111:B4 (Catalog #L5293-2ML, Sigma-Aldrich, St. Louis, Mo.) was added after 2 hours and cells were incubated for another 22 hours at 37° C.-5% CO2. After 22 hour incubation, a mixture of anti-IL6 XL665 and anti-IL-6 Cryptate diluted in reconstitution buffer (Catalog #62IL6PEC, Cisbio Inc., Bedford, Mass.) was added to each well. Following incubation for 3 hours at room temperature, Homogeneous Time-Resolved Fluorescence (HTRF) was measured using the Envision (Perkin Elmer, Shelton, Conn.) at 665 nm and […]. The ratio of fluorescence at 665 nm to 620 nm was used as a readout for IL-6 quantification. All samples were processed in duplicate. Readings were normalized to DMSO treated cells and normalized activities were utilized for EC50 calculations. EC50 was determined using software generated by Dotmatics Limited (Windhill Bishops Stortford Herts, UK) using the Levenberg-Marquardt 4 parameter fitting procedure with finite different gradients.

Assay [4] has as its target recombinant DYRK1A kinase (Homo sapiens (Human), UniProt Q13627). The assay is described as follows: DYRK1A kinase assay (Ser/Thr 18 peptide Z-lyte, FRET). The conditions noted are these: DYRK1A kinase, 30 μM ATP, one hour; method calls values IC50.
Procedure: Each compound was dissolved in DMSO as a 10 mM stock and used to prepare compound source plates.
This is a non-radioactive assay using fluorescence resonance energy transfer (FRET) between coumarin and fluorescein to detect kinase activity which is represented as a ratio of coumarin emission/fluorescein emission.
The mixture was allowed to incubate with the representative compounds for one hour at room temperature. All reactions were performed in duplicate. Unphosphorylated (“0% Control”) and phosphorylated (“100% control”) forms of Ser/Thr 18 served as control reactions. Additionally, an 11-point dose-response curve of Staurosporine (1 uM top) was run to serve as a positive compound control.
After incubation, Development Reagent A was diluted in Development Buffer then added to the reaction and allowed to further incubate for one hour at room temperature.
Dose-response curves were generated and inhibitory concentration (IC50) values were calculated using non-linear regression curve fit in the Dotmatics' Studies Software (Bishops Stortford, UK).

Chain of recombinant GSK3β kinase (P49841 whole entry): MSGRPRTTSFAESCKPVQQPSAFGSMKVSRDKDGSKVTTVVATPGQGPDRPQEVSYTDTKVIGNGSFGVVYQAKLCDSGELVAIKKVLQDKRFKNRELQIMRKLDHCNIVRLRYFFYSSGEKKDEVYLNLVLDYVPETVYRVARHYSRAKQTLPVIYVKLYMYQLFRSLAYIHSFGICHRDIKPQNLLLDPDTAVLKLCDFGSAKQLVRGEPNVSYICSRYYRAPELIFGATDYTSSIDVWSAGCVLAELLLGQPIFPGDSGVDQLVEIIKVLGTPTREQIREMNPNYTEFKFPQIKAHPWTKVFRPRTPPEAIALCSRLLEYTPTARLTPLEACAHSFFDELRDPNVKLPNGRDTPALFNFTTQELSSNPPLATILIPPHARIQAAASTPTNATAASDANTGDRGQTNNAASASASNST

Regarding `Cn1cc(-c2ccc3cnc(NC(=O)c4csc(C5CCNCC5)n4)cc3c2)cn1` [Compound 25, N-(6-(1-Methyl-1H-pyrazol-4-yl)isoquinolin-3-yl)-2-(piperidin-4-yl) thiazole-4-carboxamide], the pEC50 in assay [1] is 6.26; at recombinant GSK3β kinase, 5.51; in assay [2] it was 6.06; in assay [3], 5.92; in the assay with IL-6, 5.59; in assay [4], 7.41.
Consider `CN1CCN(c2nc(C(=O)Nc3cc4cc(-c5cnn(C)c5)ccc4cn3)cs2)CC1` [Compound 26, N-(6-(1-Methyl-1H-pyrazol-4-yl)isoquinolin-3-yl)-2-(4-methylpiperazin-1-yl)thiazole-4-carboxamide], for which the pEC50 in assay [1] is 5.76; on recombinant GSK3β kinase, 5.66; in assay [2] it was 5.47; in assay [3], 5.33; in the assay with IL-6, below 5.00; in assay [4], 8.52. Moreover, the inhibition at 10 µM in the assay with IL-6 came out at 40.3%.
Regarding `Cn1cc(-c2ccc3cnc(NC(=O)c4cnn(C5CCNCC5)c4)cc3c2)nn1` [Compound 29, N-(6-(1-Methyl-1H-1,2,3-triazol-4-yl)isoquinolin-3-yl)-1-(piperidin-4-yl)-1H-pyrazole-4-carboxamide], the pEC50 was 7.52 in assay [1]; 6.64 on recombinant GSK3β kinase; 7.22 in assay [2]; 6.87 in assay [3]; 6.44 with IL-6; 8.52 in assay [4].
Turning to `CN1CCC(n2cc(C(=O)Nc3cc4cc(-c5cn(C)nn5)ccc4cn3)cn2)CC1` [Compound 30, N-(6-(1-Methyl-1H-1,2,3-triazol-4-yl)isoquinolin-3-yl)-1-(1-methylpiperidin-4-yl)-1H-pyrazole-4-carboxamide], the pEC50 in assay [1] is 7.85; on recombinant GSK3β kinase it was 6.49; in assay [2], 7.49; in assay [3], 7.08; in the assay with IL-6 it was 6.58; in assay [4], 8.52.
In the case of `CCN1CCC(n2cc(C(=O)Nc3cc4cc(-c5cn(C)nn5)ccc4cn3)cn2)CC1` [Compound 31, 1-(1-Ethylpiperidin-4-yl)-N-(6-(1-methyl-1H-1,2,3-triazol-4-yl)isoquinolin-3-yl)-1H-pyrazole-4-carboxamide], the pEC50 in assay [1] was 7.68; on recombinant GSK3β kinase, 6.54; in assay [2], 7.41; in assay [3], 6.53; with IL-6, 6.16; in assay [4], 8.52.
With `CC(C)N1CCC(n2cc(C(=O)Nc3cc4cc(-c5cn(C)nn5)ccc4cn3)cn2)CC1` [Compound 32, 1-(1-Isopropylpiperidin-4-yl)-N-(6-(1-methyl-1H-1,2,3-triazol-4-yl)isoquinolin-3-yl)-1H-pyrazole-4-carboxamide], the pEC50 in assay [1] is 7.48; at recombinant GSK3β kinase, 6.46; in assay [2], 7.36; in assay [3], 6.69; in the assay on IL-6, 6.36; in assay [4], 8.52.
Turning to `Cn1cc(-c2ccc3cnc(NC(=O)c4cn(C5CCNCC5)nn4)cc3c2)nn1` [Compound 33, N-(6-(1-Methyl-1H-1,2,3-triazol-4-yl)isoquinolin-3-yl)-1-(piperidin-4-yl)-1H-1,2,3-triazole-4-carboxamide], the pEC50 is 7.15 in assay [1]; 6.50 on recombinant GSK3β kinase; 6.59 in assay [2]; 6.25 in assay [3]; 6.07 in the assay with IL-6; 8.15 in assay [4].
On to `Cn1cc(-c2ccc3cnc(NC(=O)c4cn(C5CCN(CCF)CC5)nn4)cc3c2)nn1` [Compound 34, 1-(1-(2-Fluoroethyl)piperidin-4-yl)-N-(6-(1-methyl-1H-1,2,3-triazol-4-yl)isoquinolin-3-yl)-1H-1,2,3-triazole-4-carboxamide], for which the pEC50 is 6.64 in assay [1]; 6.40 at recombinant GSK3β kinase; 6.18 in assay [2]; 6.19 in assay [3]; 5.96 with IL-6; 8.22 in assay [4].
For `CC(C)N1CCC(n2cc(C(=O)Nc3cc4cc(-c5cn(C)nn5)ccc4cn3)nn2)CC1` [Compound 35, 1-(1-Isopropylpiperidin-4-yl)-N-(6-(1-methyl-1H-1,2,3-triazol-4-yl)isoquinolin-3-yl)-1H-1,2,3-triazole-4-carboxamide], the pEC50 was 6.95 in assay [1]; 6.53 on recombinant GSK3β kinase; 6.51 in assay [2]; 6.20 in assay [3]; 5.68 with IL-6; 8.00 in assay [4].
Turning to `Cn1cc(-c2ccc3cnc(NC(=O)c4coc(C5CCNCC5)n4)cc3c2)nn1` [Compound 36, N-(6-(1-Methyl-1H-1,2,3-triazol-4-yl)isoquinolin-3-yl)-2-(piperidin-4-yl) oxazole-4-carboxamide], the negative-log EC50 (pEC50) in assay [1] was 6.94; on recombinant GSK3β kinase, 6.34; in assay [2], 6.40; in assay [3], 6.22; in the assay with IL-6, 5.59; in assay [4], 7.72.
Turning to `CN1CCC(c2nc(C(=O)Nc3cc4cc(-c5cn(C)nn5)ccc4cn3)co2)CC1` [Compound 37, N-(6-(1-Methyl-1H-1,2,3-triazol-4-yl)isoquinolin-3-yl)-2-(1-methylpiperidin-4-yl)oxazole-4-carboxamide], the pEC50 in assay [1] was 6.98; at recombinant GSK3β kinase, 6.47; in assay [2], 6.75; in assay [3], 6.61; with IL-6 it was 5.58; in assay [4], 7.62.
On to `CC(C)N1CCC(c2nc(C(=O)Nc3cc4cc(-c5cn(C)nn5)ccc4cn3)co2)CC1` [Compound 38, 2-(1-Isopropylpiperidin-4-yl)-N-(6-(1-methyl-1H-1,2,3-triazol-4-yl)isoquinolin-3-yl)oxazole-4-carboxamide], for which the negative logarithm of the EC50 (pEC50) in assay [1] was 6.26; at recombinant GSK3β kinase, 5.87; in assay [2] it was 5.79; in assay [3], below 5.00; with IL-6, below 5.00; in assay [4] it was 6.74. For the same compound, the inhibition at 10 µM turned out to be 3.9% in assay [3] (read-out: percent inhibition at 10 μM) and 5.3% with IL-6.
